Columns and labels:
Assay type in all cases: in vivo
Lolium rigidum [1] = assay: Post-emergence herbicidal efficacy, LOLRI; conditions: application rate 320 g/ha, rated visually after about 3 weeks
Method: (§1) C.2 Post-Emergence Herbicidal Action and Crop Plant Compatibility
(§2) Seeds of monocotyledonous and dicotyledonous weeds and crop plants are placed in sandy loam in plastic or organic planting pots, covered with soil and cultivated in a greenhouse under controlled growth conditions. 2 to 3 weeks after sowing, the test plants are treated at the one-leaf stage. The compounds of the invention, formulated in the form of wettable powders (WP) or as emulsion concentrates (EC), are then sprayed onto the green parts of the plants as aqueous suspension or emulsion with addition of 0.5% additive at a water application rate of […] (converted). After the test plants had been kept in the greenhouse under optimum growth conditions for about 3 weeks, the activity of the preparations is rated visually in comparison to untreated controls. For example, 100% activity=the plants have died, 0% activity=like control plants.

Polygonum convolvulus = assay: Pre-emergence herbicidal efficacy, POLCO; conditions: Table B1, application rate 320 g/ha, scored visually after about 3 weeks vs untreated controls
In short: (§3)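 Seeds were sown in pots and covered with soil; WP or EC formulations were sprayed onto the soil surface as aqueous suspension or emulsion with 0.5% additive. Pots were kept in a greenhouse, and after about 3 weeks damage was rated visually as percent versus untreated controls (100% = plants dead, 0% = like control).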

Stellaria media [2] = assay: Post-emergence herbicidal efficacy, STEME; conditions: application rate 320 g/ha, rated visually after about 3 weeks
Source text: (§4) ABUTH: Abutilon theophrasti ALOMY: Alopecurus myosuroides AMARE: Amaranthus retroflexus AVEFA: Avena fatua CYPES: Cyperus esculentus ECHCG: Echinochloa crus-galli LOLMU: Lolium multiflorum MATIN: Matricaria inodora PHBPU: Ipomoea purpurea POLCO: Polygonum convolvulus SETVI: Setaria viridis STEME: Stellaria media VERPE: Veronica persica VTOTR: Viola tricolor
as §1, §2

Echinochloa crus-galli [3] = assay: Post-emergence herbicidal efficacy, ECHCG; conditions: application rate 320 g/ha, rated visually after about 3 weeks
Source text: as §4, §1, §2

Veronica persica [4] = assay: Post-emergence herbicidal efficacy, VERPE; conditions: application rate 320 g/ha
Source text: as §4, §1, §2

Abutilon theophrasti = assay: Pre-emergence herbicidal efficacy, ABUTH; conditions: Table B1, application rate 320 g/ha, scored visually after about 3 weeks vs untreated controls
In short: as §3

Stellaria media [5] = assay: Pre-emergence herbicidal efficacy, STEME; conditions: Table B1, application rate 320 g/ha, scored visually after about 3 weeks vs untreated controls
In short: as §3

Amaranthus retroflexus [6] = assay: Post-emergence herbicidal efficacy, AMARE; conditions: application rate 320 g/ha, rated visually after about 3 weeks
Source text: as §4, §1, §2

Matricaria inodora = assay: Pre-emergence herbicidal efficacy, MATIN; conditions: Table B1, application rate 320 g/ha, scored visually after about 3 weeks vs untreated controls
In short: as §3

Lolium rigidum [7] = assay: Pre-emergence herbicidal efficacy, LOLRI; conditions: Table B1, application rate 320 g/ha, scored visually after about 3 weeks vs untreated controls
In short: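 Seeds sown in pots and covered with soil. Greenhouse-grown about 3 weeks, then visually scored as % activity vs untreated controls (100% = dead, 0% = like control).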

Amaranthus retroflexus [8] = assay: Pre-emergence herbicidal efficacy, AMARE; conditions: Table B1, application rate 320 g/ha, scored visually after about 3 weeks vs untreated controls
In short: as §3

Veronica persica [9] = assay: Pre-emergence herbicidal efficacy, VERPE; conditions: Table B1, application rate 320 g/ha, scored visually after about 3 weeks vs untreated controls
In short: as §3

Viola tricolor [10] = assay: Post-emergence herbicidal efficacy, VIOTR; conditions: application rate 320 g/ha
Source text: as §4, §1, §2

Viola tricolor [11] = assay: Pre-emergence herbicidal efficacy, VIOTR; conditions: Table B1, application rate 320 g/ha, scored visually after about 3 weeks vs untreated controls
In short: as §3

Setaria viridis = assay: Pre-emergence herbicidal efficacy, SETVI; conditions: Table B1, application rate 320 g/ha, scored visually after about 3 weeks vs untreated controls
In short: as §3

Echinochloa crus-galli [12] = assay: Pre-emergence herbicidal efficacy, ECHCG; conditions: Table B1, application rate 320 g/ha, scored visually after about 3 weeks vs untreated controls
In short: as §3

harmful plants = assay: Post-emergence herbicidal action; conditions: applied post-emergence
Method: as §1, §2

[13] = rated visually after about 3 weeks (Table B5)
[14] = rated visually after about 3 weeks (Table B7)

Compound	Herbicidal efficacy against LOLRI (Lolium rigidum [1])	Herbicidal efficacy against POLCO (Polygonum convolvulus)	Herbicidal efficacy against STEME (Stellaria media [2])	Herbicidal efficacy against ECHCG (Echinochloa crus-galli [3])	Herbicidal efficacy against VERPE (Veronica persica [4]; [13])	Herbicidal efficacy against ABUTH (Abutilon theophrasti)	Herbicidal efficacy against STEME (Stellaria media [5])	Herbicidal efficacy against AMARE (Amaranthus retroflexus [6])	Herbicidal efficacy against MATIN (Matricaria inodora)	Herbicidal efficacy against LOLRI (Lolium rigidum [7])	Herbicidal efficacy against AMARE (Amaranthus retroflexus [8])	Herbicidal efficacy against VERPE (Veronica persica [9])	Herbicidal efficacy against VIOTR (Viola tricolor [10]; [13])	Herbicidal efficacy against VIOTR (Viola tricolor [11])	Herbicidal efficacy against SETVI (Setaria viridis)	Herbicidal efficacy against ECHCG (Echinochloa crus-galli [12])	herbicidal efficacy against harmful plants (harmful plants)	Herbicidal efficacy against VERPE (Veronica persica [4]; [14])	Herbicidal efficacy against VIOTR (Viola tricolor [10]; [14])
Cc1ccc2c(c1)C(Nc1nc3n(n1)CCCCS3)C(C)C2 (stereo not drawn) [Example I-354]	100%	100%	100%	100%	100%	100%	100%	80%	100%	100%	100%	100%	80%	100%	100%	100%	–	–	–
c1ccc2c(c1)CCC[C@H]2Nc1nc2n(n1)CCCCS2 [Example I-355]	–	100%	100%	100%	80%	100%	100%	80%	100%	80%	100%	100%	80%	100%	100%	100%	–	–	–
Cc1ccc2c(c1)C(Nc1nc3n(n1)CCCCS3(=O)=O)CC2 (stereo not drawn) [Example I-232]	90%	100%	100%	80%	90%	100%	100%	100%	100%	100%	100%	100%	90%	100%	100%	100%	–	–	–
Cc1ccc2c(c1)C(Nc1nc3n(n1)CCCCS3(=O)=O)C(C)C2 (stereo not drawn) [Example I-366]	90%	100%	90%	100%	–	100%	100%	80%	100%	100%	100%	100%	–	100%	100%	100%	–	–	–
Cc1ccc2c(c1)C(Nc1nc3n(n1)CCCCS3)CC2 (stereo not drawn) [Example I-248]	100%	100%	100%	100%	90%	100%	100%	90%	100%	100%	100%	100%	90%	100%	100%	100%	very good herbicidal efficacy	–	–
Cc1ccc2c(c1)C(Nc1nc3n(n1)CCCCS3(=O)=O)CCC2 (stereo not drawn) [Example I-234]	–	100%	–	–	–	100%	100%	–	100%	100%	100%	100%	–	100%	100%	100%	–	80%	90%
Cc1ccc2c(c1)C(Nc1nc3n(n1)CCCC[S+]3[O-])CC2 (stereo not drawn) [Example I-245]	–	100%	–	–	–	100%	100%	–	100%	100%	100%	100%	–	100%	100%	100%	–	90%	80%
CC(=O)N1CCn2nc(N[C@@H]3CCCc4ccccc43)nc2C1 [Example I-163]	–	100%	–	–	–	100%	100%	–	100%	80%	100%	100%	–	100%	100%	100%	–	90%	80%
Cc1ccc2c(c1)[C@H](Nc1nc3n(n1)CCCCS3)CCC2 [Example I-402]	–	100%	90%	100%	90%	100%	100%	90%	100%	100%	100%	100%	90%	100%	100%	100%	–	–	–
Cc1ccc2c(c1)C(Nc1nc3n(n1)CCC(=O)N3C)CC2 (stereo not drawn) [Example I-227]	–	100%	–	–	–	100%	100%	–	100%	100%	100%	100%	–	100%	100%	100%	–	100%	90%
Cc1ccc2c(c1)[C@H](Nc1nc3n(n1)CCN(S(C)(=O)=O)C3)[C@@H](C)C2 [Example I-190]	–	100%	–	–	–	100%	100%	–	100%	100%	100%	100%	–	100%	100%	100%	–	80%	80%

From patent publication US20200331904A1, “3-AMINO-[1,2,4]-TRIAZOLE DERIVATIVES AND THEIR USE FOR CONTROLLING UNDESIRED PLANT GROWTH” (Bayer CropScience Aktiengesellschaft, priority 2017, published 2020)
